The assay concerns the target T1, (H^+ +K^+)-ATPase (Canis lupus familiaris, UniProt P50996).
T1 construct: from tissue; host or cells: gastric glandular mucosa of mongrel dogs (microsomes from the 15-30% sucrose interface, lyophilized)
The assay can be described thus: Inhibition of (H^+ +K^+)-ATPase from Canine Gastric Mucosa. Conditions: for IC50: canine gastric mucosa microsomes, 30 min preincubation at 37°, pH 6.0, K^+-stimulated minus basal activity. The class given is biochemical, canine (mongrel dogs). The procedure:
The antisecretory activity of the compounds of this invention illustrated in the Examples was tested by the following method.
Inhibition of ([…] +K^+)-ATPase from Canine Gastric Mucosa
Mongrel dogs weighing 15 to 25 kilograms were fasted for twenty-four hours, with water provided ad libitum. The animals were anesthetized with pentobarbital and the stomachs were removed. Subsequent tissue manipulations and subcellular fractionations were performed at 0° to 4° C. After the stomachs were cut open and rinsed with tap water, the antral and cardiac regions were removed and the remaining tissue was rinsed three times in saline. The glandular mucosa was removed mechanically, chopped finely in a medium containing 10 mM Tris hydrochloride (pH 7.4) and 250 mM sucrose, and homogenized. The homogenate was centrifuged at 20,000×g for twenty minutes and the pellet discarded. The supernatant was then centrifuged at 150,000xg for ninety minutes and the supernatant discarded. The pellet was resuspended in the Tris-HCl/sucrose medium by homogenization. Part (2 ml) of the resultant microsomal suspension was layered onto a step gradient consisting of 9 ml of 15% sucrose above 12 ml of 30% sucrose, each sucrose solution being buffered with 10 mM Tris hydrochloride (pH 7.4) containing 0.01% sodium azide. The microsomes retained at the 15-30% sucrose interface, after centrifugation at 250,000×g for sixty minutes, were used as the source of (H^+ +K^+)-ATPase. Microsomal preparations were lyophilized, a process that assured potassium ion permiability, and stored at -10° until used.
The (H^+ +K^+)-ATPase activity for each test compound was determined, in duplicate, by measuring the release of inorganic phosphate, which was assayed according to the method of J. ChandraRajan and L. Klein., Anal. Biochem., 72. 407-412 (1976). […] At least fifteen minutes later, the optical absorbance at 870 nm (which was proportional to inorganic phosphate concentration up to 100 nmoles per tube, as determined by a standard curve) was obtained. […]

Consider two molecules from patent US4721718A, “2-[(imidazo[1,2-a]pyridin-3-ylmethyl)sulfinyl]-1H-benzimidazoles useful in the treatment and prevention of ulcers” (G. D. Searle & Co., priority 1986, dated 1988).

T1 sequence (P50996 whole entry): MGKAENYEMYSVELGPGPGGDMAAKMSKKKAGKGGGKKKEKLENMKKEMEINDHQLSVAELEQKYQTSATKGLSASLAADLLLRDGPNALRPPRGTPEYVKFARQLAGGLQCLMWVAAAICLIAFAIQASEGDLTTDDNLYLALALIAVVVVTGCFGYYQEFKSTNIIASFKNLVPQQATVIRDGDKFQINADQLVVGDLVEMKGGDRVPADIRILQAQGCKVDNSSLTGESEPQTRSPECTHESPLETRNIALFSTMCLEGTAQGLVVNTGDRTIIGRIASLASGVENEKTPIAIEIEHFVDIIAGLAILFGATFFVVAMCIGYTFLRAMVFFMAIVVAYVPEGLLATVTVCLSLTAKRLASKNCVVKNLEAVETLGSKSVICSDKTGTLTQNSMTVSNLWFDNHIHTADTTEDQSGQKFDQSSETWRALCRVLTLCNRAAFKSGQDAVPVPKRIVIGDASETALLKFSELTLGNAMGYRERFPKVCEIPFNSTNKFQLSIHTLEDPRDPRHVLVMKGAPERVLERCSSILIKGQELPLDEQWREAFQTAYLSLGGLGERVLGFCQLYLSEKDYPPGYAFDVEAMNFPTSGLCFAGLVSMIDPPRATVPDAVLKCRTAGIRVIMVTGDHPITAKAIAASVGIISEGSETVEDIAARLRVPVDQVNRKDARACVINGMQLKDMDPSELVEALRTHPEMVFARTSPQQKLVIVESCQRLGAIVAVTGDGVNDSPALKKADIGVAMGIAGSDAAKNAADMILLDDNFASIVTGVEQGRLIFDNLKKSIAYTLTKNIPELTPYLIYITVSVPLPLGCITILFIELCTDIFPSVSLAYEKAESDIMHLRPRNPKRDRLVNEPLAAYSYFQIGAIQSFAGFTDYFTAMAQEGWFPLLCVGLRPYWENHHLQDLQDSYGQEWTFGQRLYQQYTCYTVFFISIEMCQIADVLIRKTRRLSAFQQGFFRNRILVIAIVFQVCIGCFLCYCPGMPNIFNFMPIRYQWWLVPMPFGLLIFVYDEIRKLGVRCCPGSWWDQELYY
T1 sequence (P33704 whole entry partner): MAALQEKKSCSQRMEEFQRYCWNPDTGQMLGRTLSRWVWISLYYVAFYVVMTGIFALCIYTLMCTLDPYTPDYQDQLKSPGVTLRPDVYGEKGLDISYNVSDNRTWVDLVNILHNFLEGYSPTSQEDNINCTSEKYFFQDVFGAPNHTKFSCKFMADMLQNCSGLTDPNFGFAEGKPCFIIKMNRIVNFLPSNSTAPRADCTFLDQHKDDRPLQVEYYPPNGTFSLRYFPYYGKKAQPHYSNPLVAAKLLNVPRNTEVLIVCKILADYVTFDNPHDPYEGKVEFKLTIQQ

In general, IC50 refers to the concentration needed to halve the response being measured. With `[O-][S+](Cc1cnc2ccccn12)c1nc2ccccc2[nH]1` (stereo not drawn) [Example 2, 2-[(imidazo[1,2-a]pyridin-3-ylmethyl)sulfinyl]-1H-benzimidazole 1/4 hydrate], the IC50 was 3.88 µM.
With `[O-][S+](Cc1cn2ccccc2n1)c1nc2ccccc2[nH]1` (stereo not drawn) [Example 4, 2-[(imidazo[1,2-a]pyridin-2-ylmethyl)sulfinyl]-1H-benzimidazole], the IC50 is > 100 µM. Moreover, where the note is “as shown in Table I”, the “inhibition of (H^+ +K^+)-ATPase activity (in words)” value is listed as “not inhibiting (H^+ +K^+)-ATPase activity”.
